Series [1] is described as follows: Stability comparison of crystal form A and crystal form B (slurry in ethanol, XRPD). The class given is physicochemical. To be noted: from conversion in ethanol, 16 hrs. From the text:
35 g of the crystal form B of the compound of Formula (II) was weighed, added to ethanol, and stirred for 16 hrs.

Series [2] is described as follows: Hygroscopicity test by dynamic vapor sorption (DVS). The class given is physicochemical. Here is the method: Dynamic Vapor Sorption (DVS) of the Present Invention • Instrument model: SMS DVS Intrinsic Dynamic Vapor Sorption Analyzer • Test method: A sample (10-30 mg) is tested in a DVS sample pan. Detailed DVS Parameters: • Temperature: 25° C. • Equilibration: dm/dt=0.002%/min (Minimum: 10 min, Maximum: 180 min) • RH (%) test interval: 10 (0-90%), 5 (90-95%) • RH (%) test interval range: 0-95-0 Hygroscopicity evaluations are classified as follows: [table] Note: AW % represents the hygroscopic weight gain of the test product at 25° C./80% RH. Experimental Method: • 10-30 mg of the crystal form A of the compound of Formula (II) was placed in the DVS sample pan and tested. Experimental Method: • 10-30 mg of the crystal form G of the compound of Formula (III) was placed in the DVS sample pan and tested. Experimental Method: • 10-30 mg of the crystal form J of the compound of Formula (IV) was placed in the DVS sample pan and tested.

Series [3] is described as follows: Solubility test in media of various pH (water, SGF, FaSSIF, FeSSIF). The series is classed as physicochemical. The following applies: for solubility at 24 h: read-out: Solubility (mg/ml)_24 h. How it is done: The solubility of the crystal form A of the compound of Formula (II) in 4 media with different pH values was tested. About 10 mg of the crystal form A of the compound of Formula (II) was weighed, and then 5.0 mL of different media (water, SGF, FaSSIF, and FeSSIF) were added respectively, to form a suspension. A magnetron was added to the suspension and the suspension was stirred on a magnetic stirrer for 2 hrs, and a sample was taken and centrifuged after 4 hrs. The sample in the upper layer was determined for concentration by HPLC and determined for the pH value.
• FaSSIF: (1). 0.042 g of sodium hydroxide, 0.3438 g of sodium dihydrogen phosphate and 0.6186 g of sodium chloride were weighed, added to 90 mL of purified water and mixed well. The solution was adjusted to pH 6.5 with 1 N hydrochloric acid or 1 N sodium hydroxide, and made up to 100 mL with purified water. (2). 0.224 g of commercially available powder of FaSSIF/FeSSIF/FaSSGF was added to 50 mL of the buffer, stirred until dissolved, and made up to 100 mL with purified water. The prepared buffer was left to stand at room temperature for 2 hrs, and observed to be slightly milky white, which was ready for use (simulating intestinal juice in human before eating). • FeSSIF: (1). 0.404 g of sodium hydroxide, and 0.865 g of glacial acetic acid, 1.1874 g of sodium chloride were weighed and added to 90 mL of purified water and mixed well. The solution was adjusted to pH 5.0 with 1 N hydrochloric acid or 1 N sodium hydroxide, and made up to 100 mL with purified water. (2). 1.12 g of commercially available powder of FaSSIF/FeSSIF/FaSSGF was added to 50 mL of the buffer, stirred until dissolved, and made up to 100 mL with purified water. The prepared buffer was left to stand at room temperature for 2 hrs, and observed to be a clear liquid, which was ready for use (simulating intestinal juice in human after eating). • FaSSGF (SGF): (1). 0.2 g of sodium chloride was weighed and added to 90 mL of purified water and mixed well. The solution was adjusted to pH 1.8 with 1 N hydrochloric acid, made up to 100 mL with purified water, and left to stand until it was naturally cooled to room temperature (simulating human gastric juice before eating).

Series [4] has as its target T1, human c-Met (Homo sapiens, UniProt P08581).
T1 construct: purchased Invitrogen PV3143
Put plainly: 33P isotope-labeled kinase activity assay, c-Met. The series is classed as biochemical. The following applies: ATP 10 μM. How it is done: (§1) The IC50 value was tested by ^33P isotope-labeled kinase activity assay (Reaction Biology Corp) to evaluate the inhibition of the test compounds on human FGFR1, FGFR4, and c-Met.
(§2) Buffer: 20 mM Hepes (pH 7.5), 10 mM MgCl2, 1 mM EGTA, 0.02% Brij35, 0.02 mg/ml BSA, 0.1 mMNa3VO4, 2 mM DTT, and 1% DMSO.
(§3) Test procedure: At room temperature, the test compound was dissolved in DMSO to prepare a 10 mM solution for use. The substrate was dissolved in freshly prepared buffer, and the test kinase was added and mixed well. A solution of the test compound in DMSO was added to the mixed reaction solution using an acoustic technology (Echo550). The compound concentration in the reaction solution was 1 μM, 0.25 μM, […], 0.977 nM, 0.244 nM, 0.061 nM, 0.0153 nM, 0.00381 nM, or 10 μM, 2.50 μM, 0.62 μM, 0.156 μM, 39.1 nM, 9.8 nM, 2.4 nM, 0.61 nM, 0.15 nM, and 0.038 nM, respectively. After 15 min of incubation, ^33P-ATP (with an activity of 0.01 μCi/nL, the corresponding concentration is listed in Table 18) was added to start the reaction. The supplier's catalogue number, lot number, and concentration in the reaction solution of FGFR1, FGFR4, c-Met, and substrates thereof are listed in Table 18. […]

The target in series [5] is T2, human FGFR1 (Homo sapiens, UniProt P11362).
T2 construct: purchased Invitrogen PV3146
Put plainly: 33P isotope-labeled kinase activity assay, FGFR1. The following applies: ATP 5 μM. The series is classed as biochemical.
Description: Test procedure: At room temperature, the test compound was dissolved in DMSO to prepare a 10 mM solution for use. The substrate was dissolved in freshly prepared buffer, and the test kinase was added and mixed well. A solution of the test compound in DMSO was added to the mixed reaction solution using an acoustic technology (Echo550). […] After 15 min of incubation, ^33P-ATP (with an activity of 0.01 μCi/nL, the corresponding concentration is listed in Table 18) was added to start the reaction. […] The kinase activity data were expressed by the comparison of the kinase activity in the presence of the test compound with the kinase activity of the blank group (containing only DMSO), and an IC50 value was obtained by curve fitting with Prism4 software (GraphPad).

Series [6] deals with T3, human FGFR4 (Homo sapiens, UniProt P22455).
T3 construct: purchased Invitrogen P3054
Put plainly: 33P isotope-labeled kinase activity assay, FGFR4. The class given is biochemical. To be noted: ATP 100 μM. Here is the method: as §1, §2, §3

SMILES strings stand for the structures. Like-named read-outs stand apart in the source and are kept apart here.

A word on the IC50: it is the concentration that gives 50% inhibition. High values mean lower potency, low ones higher potency.

T2 sequence (P11362 22-822): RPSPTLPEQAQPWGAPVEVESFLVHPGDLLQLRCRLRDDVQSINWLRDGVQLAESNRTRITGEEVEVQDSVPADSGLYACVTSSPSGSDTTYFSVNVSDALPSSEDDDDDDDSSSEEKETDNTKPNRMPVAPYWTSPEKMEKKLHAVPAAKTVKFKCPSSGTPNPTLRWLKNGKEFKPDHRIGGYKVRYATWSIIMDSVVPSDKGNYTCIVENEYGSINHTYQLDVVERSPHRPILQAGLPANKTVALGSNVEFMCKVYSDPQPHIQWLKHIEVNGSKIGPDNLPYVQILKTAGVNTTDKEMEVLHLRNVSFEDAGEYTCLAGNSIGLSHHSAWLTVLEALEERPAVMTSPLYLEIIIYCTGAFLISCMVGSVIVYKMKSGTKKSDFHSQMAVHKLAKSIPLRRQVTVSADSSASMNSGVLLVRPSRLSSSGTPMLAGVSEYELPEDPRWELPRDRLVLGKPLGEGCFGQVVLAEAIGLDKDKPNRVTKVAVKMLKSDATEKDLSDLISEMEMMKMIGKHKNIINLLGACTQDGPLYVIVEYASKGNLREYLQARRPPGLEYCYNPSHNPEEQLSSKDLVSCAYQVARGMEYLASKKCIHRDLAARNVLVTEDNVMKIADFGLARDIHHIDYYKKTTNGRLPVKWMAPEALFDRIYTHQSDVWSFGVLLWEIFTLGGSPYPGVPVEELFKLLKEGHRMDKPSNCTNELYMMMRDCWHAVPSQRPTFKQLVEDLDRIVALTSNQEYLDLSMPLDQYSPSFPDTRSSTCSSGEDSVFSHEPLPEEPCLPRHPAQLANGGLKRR
T1 sequence (P08581 25-1390): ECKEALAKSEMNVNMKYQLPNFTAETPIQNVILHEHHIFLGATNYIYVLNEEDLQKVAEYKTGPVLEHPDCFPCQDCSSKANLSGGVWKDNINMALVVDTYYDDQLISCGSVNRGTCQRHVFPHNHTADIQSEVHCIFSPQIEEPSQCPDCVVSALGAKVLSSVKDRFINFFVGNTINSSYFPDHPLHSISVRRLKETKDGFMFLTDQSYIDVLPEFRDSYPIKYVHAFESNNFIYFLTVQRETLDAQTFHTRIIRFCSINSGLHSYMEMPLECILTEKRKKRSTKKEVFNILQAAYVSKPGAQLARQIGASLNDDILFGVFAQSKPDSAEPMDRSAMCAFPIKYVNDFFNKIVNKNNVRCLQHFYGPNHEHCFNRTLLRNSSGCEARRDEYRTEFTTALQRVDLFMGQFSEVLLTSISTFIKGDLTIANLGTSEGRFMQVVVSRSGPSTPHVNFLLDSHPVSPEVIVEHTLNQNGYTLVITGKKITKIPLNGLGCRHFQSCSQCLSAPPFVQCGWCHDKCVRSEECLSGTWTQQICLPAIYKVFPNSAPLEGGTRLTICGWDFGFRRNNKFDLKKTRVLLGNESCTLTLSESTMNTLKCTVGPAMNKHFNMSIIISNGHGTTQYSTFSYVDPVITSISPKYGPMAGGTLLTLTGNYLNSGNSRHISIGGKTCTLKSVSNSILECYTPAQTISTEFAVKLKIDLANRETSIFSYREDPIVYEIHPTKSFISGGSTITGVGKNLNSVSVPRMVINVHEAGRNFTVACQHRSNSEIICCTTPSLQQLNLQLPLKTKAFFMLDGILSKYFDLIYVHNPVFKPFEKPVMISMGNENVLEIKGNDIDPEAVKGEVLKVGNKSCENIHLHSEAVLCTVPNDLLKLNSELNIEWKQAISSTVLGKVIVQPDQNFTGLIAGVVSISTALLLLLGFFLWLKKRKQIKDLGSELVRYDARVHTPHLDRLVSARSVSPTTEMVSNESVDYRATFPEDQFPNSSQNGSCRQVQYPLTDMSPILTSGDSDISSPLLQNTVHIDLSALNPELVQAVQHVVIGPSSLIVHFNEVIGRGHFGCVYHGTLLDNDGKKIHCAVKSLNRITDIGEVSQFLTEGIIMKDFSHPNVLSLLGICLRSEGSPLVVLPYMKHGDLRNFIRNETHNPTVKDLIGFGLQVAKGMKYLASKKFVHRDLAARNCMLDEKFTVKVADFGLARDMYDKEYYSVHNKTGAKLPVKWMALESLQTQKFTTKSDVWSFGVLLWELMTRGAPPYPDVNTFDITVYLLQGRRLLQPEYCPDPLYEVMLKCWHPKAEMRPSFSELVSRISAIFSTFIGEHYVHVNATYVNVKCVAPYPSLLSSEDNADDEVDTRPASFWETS
T3 sequence (P22455 22-802): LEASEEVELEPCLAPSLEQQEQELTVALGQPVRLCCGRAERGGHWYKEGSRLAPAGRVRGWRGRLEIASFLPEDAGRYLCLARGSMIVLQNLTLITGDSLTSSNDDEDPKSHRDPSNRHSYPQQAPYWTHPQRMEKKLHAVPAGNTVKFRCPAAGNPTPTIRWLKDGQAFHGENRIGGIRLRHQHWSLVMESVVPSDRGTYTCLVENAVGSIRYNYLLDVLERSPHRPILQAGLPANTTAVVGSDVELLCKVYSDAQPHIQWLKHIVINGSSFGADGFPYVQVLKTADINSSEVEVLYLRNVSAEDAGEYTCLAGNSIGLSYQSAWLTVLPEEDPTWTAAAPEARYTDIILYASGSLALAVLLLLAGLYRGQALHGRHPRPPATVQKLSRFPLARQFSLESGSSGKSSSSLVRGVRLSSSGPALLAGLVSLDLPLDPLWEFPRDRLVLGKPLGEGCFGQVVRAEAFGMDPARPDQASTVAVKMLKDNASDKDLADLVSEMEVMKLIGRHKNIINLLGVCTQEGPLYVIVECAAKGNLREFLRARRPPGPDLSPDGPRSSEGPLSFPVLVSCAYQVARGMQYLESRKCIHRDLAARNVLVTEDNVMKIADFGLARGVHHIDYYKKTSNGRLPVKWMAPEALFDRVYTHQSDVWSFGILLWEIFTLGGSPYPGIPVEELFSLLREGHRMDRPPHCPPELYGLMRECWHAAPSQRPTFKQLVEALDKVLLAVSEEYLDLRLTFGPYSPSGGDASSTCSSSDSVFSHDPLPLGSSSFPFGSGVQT

`COc1cc(OC)c(F)c(Cc2c[nH]c3ncc(-c4cnn(CCO)c4)cc23)c1F.Cl`: in series [1], the “Relative stability of crystal forms” value is “more stable than the crystal form B of the compound of Formula (II)”. Further, the “ΔW, hygroscopic weight gain” value in series [2] (25° C. and 80% RH, DVS) was 0.3710%. In addition, the Classification of hygroscopicity entry in series [2] (25° C./80% RH) is “slightly hygroscopic”. Also, the solubility at 24 h is 0.112 mg/mL in series [3] (SGF (FaSSGF), pH 1.25, simulated gastric fluid, thermodynamic from solid, SGF, pH (24 h) 1.25, suspension); 0.252 mg/mL in series [3] (pH 4.89, thermodynamic from solid, FeSSIF, pH (24 h) 4.89, suspension); 0.004 mg/mL in series [3] (pH 5.55, thermodynamic from solid, FaSSIF, pH (24 h) 5.55, suspension); 0.009 mg/mL in series [3] (water, pH 2.42, water, thermodynamic from solid). Moreover, the Solubility in words result was “good” in series [3] (simulated gastric juice before eating in human (SGF)), “poor” in series [3] (simulated intestinal juice before eating (FaSSIF)), “good” in series [3] (simulated intestinal juice of the small intestine after eating in human (FeSSIF)) and “hard to dissolve in water” in series [3] (water). The IC50 in series [4] turned out to be 15.9 nM; in series [5], 0.2 nM; in series [6], 1.49 nM.

Values taken from patent publication US11919898B2, “Crystal form of azaindole derivative and use thereof” (Wuxi Life Fountain Biotech Co., Ltd, priority 2020, dated 2024).
